Assay results taken from patent US20200009068A1, “NANOPARTICLE FORMULATIONS FOR ENHANCED DRUG DELIVERY TO THE BLADDER” (The Johns Hopkins University, priority 2017, published 2020).

How the values were obtained:
RT4 cells = test: In vitro cytotoxicity assay (CellTiter-Glo cell viability); assay type: cell-based, human; conditions: 72 hr, triplicate
Method: In vitro cytotoxicity of CDDP, oxaliplatin, PAA-CDDP NPs, PEGlow-PAA-CDDP NPs and PEGhigh-PAA-CDDP NPs was evaluated using a superficial bladder cancer cell line (RT4) in triplicate. RT4 cells were purchased from the American Type Culture Collection (ATCC, Manassas, Va.) and cultured in McCoy's 5A (Thermo Fisher Scientific, Waltham, Mass.) at 37° C. under 5% CO2. Cells were seeded in 96-well tissue-treated culture plates at a density of 5×10^3 cells in 100 μl of complete medium and cultured overnight. Then, the supernatant was removed, and a known concentration of CDDP, oxaliplatin, or CDDP NPs (100 μl) was added into the wells. After 72 hr, cell viability was measured using CellTiter-Glo Luminescent Cell Viability Assay Kit (Promega, Madison, Wis.) according to manufacturer's protocol. Acquired data was analyzed to depict sigmoidal dose-response curve with Graph Pad Prism 5 (Graph Pad Software Inc., San Diego, Calif.) using the equation log(inhibitor) vs. response-variable slope.

[1] = tested on: N-methyl-N-nitrosourea (MNU) induced rat bladder carcinogenesis model; test: Immunohistochemical staining of bladder sections; assay type: in vivo; conditions: CDDP study, week 15
Method: Fischer 344 female rats (age 7 weeks) were anesthetized with an isoflurane vaporizer and nose cone system. After complete anesthesia and preparation of the surgical area, a 20G angiocatheter (BD) was placed into the rat's urethra and the bladder was emptied of urine. MNU (1.5 mg/kg MNU dissolved in 0.30 ml of 0.9% saline, pH 6.0) was then instilled into the bladder under 45 min of continued sedation to prevent spontaneous micturition and allow absorption. In order to explore the potential for treatment to prevent recurrence, treatment was initiated from weeks 8-14. Treatment groups (n=5 per group) included CDDP and PAA-CDDP NPs dosed weekly. All formulations were delivered at a concentration of 0.7 mg/ml in 300 μl. Rats were sacrificed at week 15 for histopathologic analysis of bladder tissue. Bladders were formalin fixed, paraffin embedded, sectioned, and stained with hematoxylin-eosin for classification according to the World Health Organization/International Society of Urological Pathology consensus. Tumor staging was performed in a blinded fashion by a board certified genitourinary pathologist.
For immunohistochemical staining, high-temperature antigen retrieval (18-23 psi/126° C.) was performed by immersing the slides in Trilogy (Cell Marque, Hot Springs, Ark.). Endogenous peroxidase activity was blocked for 5 min in using Dual Endogenous Enzyme Block (Dako S2003). Primary Antibody used included KI 67 (Abcam;ab16667). Slides were stained with Impact DAB (Vector Labs, Burlingame, Calif., USA) for 3 min and counterstained with haematoxylin (Richard-Allen, Kalamazoo, Mich., USA). For each section, Ki67+, cells were counted in 10 random 400× fields.
In a MNU-induced rat bladder carcinogenesis model as described in Example 3, Fischer Rat received weekly intravesical administration of Taxotere, DTX NS, or saline, for six weeks.

[2] = systemic CDDP therapy; cited from earlier work
[3] = Bladder uptake and retention in rats (CDDP content by AAS); assay type: in vivo; conditions: intravesical
Method: Female Fischer 344 rats (age 7 weeks) were purchased from Harlan (Indianapolis, Ind.) and acclimated in the animal facility for 1 week. Before starting the experiment, rats were randomly divided into different groups (n≥5). Rats were anesthetized with an isoflurane vaporizer and nose cone system and catheterized using a 20G angiocatheter sheath. After catheterization, the bladder was voided using aspiration and/or gentle pressure on the abdomen. Then, 300 μl of CDDP solution, PAA-CDDP NPs, PEGlow-PAA-CDDP NPs, or PEGhigh-PAA-CDDP NPs (CDDP content 0.7 mg/ml) was instilled by intravesical administration. Rats were maintained under anesthesia for 1 h and then allowed to wake up. Plasma and bladder tissues were obtained at 1 and 4 h for analysis of CDDP content. Bladder tissues were dipped in PBS and gently squeezed with forceps to remove any residual fluid.
(§1) 200 μl of plasma or bladder were transferred to a clean borosilicate glass cell culture tube, and 1 ml of 22% nitric acid was added. All samples were heated to 90° C. to digest plasma proteins or bladder tissues and to extract platinum. The solution was heated until a dry yellow film was obtained. Then, 1 ml of 2.2% nitric acid added to dissolve the dried residue containing platinum. CDDP content in the solution was analyzed by AAS. The lowest limit of quantification for CDDP was 250 ng/ml (<1% of the administered dose).

[4] = tested on: N-methyl-N-nitrosourea (MNU) induced rat bladder carcinogenesis model; test: In vivo efficacy, tumor staging by histopathology; conditions: weekly intravesical dosing weeks 8-14, 0.7 mg/ml in 300 μl, sacrifice week 15
Description: The N-methyl-N-nitrosourea (MNU) rat model of bladder cancer was chosen because it recapitulates human non-muscle invasive bladder cancer, with carcinoma in situ (CIS), non-invasive papillary carcinoma (Ta), and high grade invasive papillary carcinoma (T1) histologies, and progresses from dysplasia to NMIBC to MIBC (Steinberg G D, et al., Cancer Res, 50(20):6668-74 (1990)). This animal model progresses from dysplasia to NMIBC between about week 8 and about week […], making it a desirable time to initiate treatment and a good recapitulation of a chemopreventative treatment model. Additionally, the MNU model represents an outbred strain of NMIBC, as opposed to an inbred strain utilizing immortal clones of genetically identical tumor strains. […] Since no reliable xenograft model was believed to be present of NMIBC that progresses to MIBC in a temporal time-dependent fashion similar to human urothelial cancer, a carcinogen model was chosen to recapitulate the heterogeneity of human disease, study the antineoplastic and immunologic effects of treatment, and reflect the typical progression of non-muscle to muscle invasive cancer. In this model, the presence of NMIBC progresses from about week 8 to about week 15, at which point all rats have NMIBC.
Fischer 344 female rats (age 7 weeks) were anesthetized with an isoflurane vaporizer and nose cone system. […]

[5] = 50 patients, intravesical CDDP for more than 4 months; cited from earlier work
[6] = CDDP levels in mouse bladder after intravesical administration; assay type: in vivo; conditions: mice
Method: Female CF-1 mice (age 8 weeks) were purchased from Harlan (Indianapolis, Ind.) and acclimated in the animal facility for 4 weeks. Mice were randomly divided into different groups (n≥5). Mice were anesthetized with an isoflurane vaporizer and nose cone system and catheterized using polyethylene tubing mounted on a 30G needle. After catheterization, the bladder was emptied of urine by aspiration and/or gentle pressure on the abdomen. Then, 100 μl of CDDP solution, PAA-CDDP NPs, PEGlow-PAA-CDDP NPs or PEGhigh-PAA-CDDP NPs at 0.7 mg/ml CDDP content was instilled into the bladder by intravesical administration. Mice were maintained under anesthesia for 1 h and then allowed to wake up. To assess systemic exposure, mice were euthanized at 1, 4, and 24 h and plasma was obtained for analysis of CDDP content. To assess local toxicity of CDDP solution and CDDP NPs, mice received a total of three intravesical doses spaced one week apart. Bladder tissues were obtained 24 h after the third dose, photographed, and weighed.
as §1, with “The solution was heated until a dry yellow film was obtained. Then, 1 ml of 2.2% nitric acid added to dissolve the dried residue containing platinum.” left out

SMILES	RT4 cells-IC50 (RT4 cells)	Ki67+ staining compared to untreated controls [1]	number of CD3+ cells compared to untreated controls [1]	number of CD8+ cells compared to untreated controls [1]	number of Foxp3+ cells compared to untreated controls [1]	cases with hypersensitivity reactions [2]	CDDP levels in rat bladder at 4 h [3]	rats with T1 high grade tumors in the bladder [4]	patients who stopped treatment early due to chemical cystitis [5]	patients with anaphylactic reaction due to systemic drug absorption resulting in hypotensive shock [5]	CDDP levels in mouse bladder at 1 h ([6]; 1 h under anesthesia)	CDDP levels in mouse bladder at 4 h ([6]; 4 h (3 h ambulatory time))
N.N.O=C([O-])C1(C(=O)[O-])CCC1.[Pt+2] [Carboplatin]	17.18 ± 0.056 μg/ml of Pt											
N.N.[Cl][Pt][Cl] [Cisplatin, cis-diamminedichloridoplatinum (II)]	1.39 ± 0.03 μg/ml of Pt	decreased Ki67+ staining, though statistically indistinguishable from the untreated control group	without differences	significantly lower numbers	without differences	5-20%	below the level of detection	20%	6%	14%	similar	below the limit of quantitation
